Assay results: ChEMBL document CHEMBL5137049, “Discovery of a Novel Small-Molecule Inhibitor Disrupting TRBP-Dicer Interaction against Hepatocellular Carcinoma via the Modulation of microRNA Biogenesis” (J Med Chem, 2022)
Activity calls are given as the source filed them.

Tests used:
HeLa [1] = experiment: Downregulation of miR-21 expression in human HeLa cells at 10 uM incubated for 6 hrs by qRT-PCR analysis; assay type: functional
SK-HEP1 [2] = experiment: Upregulation of E-cadherin expression in human SK-HEP1 cells at 1 to 25 uM by Western blotting analysis; assay type: functional, cell-based; conditions: dose 1-25 µM
HepG2 [3] = experiment: Upregulation of pre-miR-21 in human HepG2 cells at 10 uM incubated for 6 hrs by qRT-PCR analysis; assay type: functional, cell-based
SK-HEP1 [4] = experiment: Downregulation of beta-catenin expression level in TRBP siRNA transfected human SK-HEP1 cells incubated for 48 hrs by Western blotting analysis; assay type: functional, cell-based
[5] = Acute toxicity in KM mouse assessed as effect on brain at 100 mg/kg, ip administered for 7 consecutive days by hematoxyin-eosin staining based analysis; assay type: organism-based; conditions: in vivo, 168 h, time 7 day
HeLa [6] = experiment: Downregulation of miR-214 expression in human HeLa cells at 10 uM incubated for 6 hrs by qRT-PCR analysis; assay type: functional
HeLa [7] = experiment: Upregulation of pri-miR-155 in human HeLa cells at 10 uM incubated for 6 hrs by qRT-PCR analysis; assay type: functional, cell-based
MHCC97-L [8] = experiment: Downregulation of miR-135 expression in human MHCC97-L cells at 10 uM by qRT-PCR analysis; assay type: functional, cell-based
Homo sapiens [9] = species on record: Homo sapiens; experiment: Effect on ADAR1-Dicer interaction (unknown origin) assessed as increase in binding of ADAR1 to Dicer at 1 to 25 uM by Western blotting analysis; conditions: dose 1-25 µM
MHCC97-L [10] = experiment: Inhibition of cell invasion in human MHCC97-L cells at 1 to 25 uM measured after 24 hrs by crystal violet staining based transwell assay; assay type: functional; conditions: dose 1-25 µM
HCCLM3 [11] = experiment: Downregulation of miR-135 expression in human HCCLM3 cells at 10 uM by qRT-PCR analysis; assay type: functional, cell-based
SK-HEP1 [12] = experiment: Upregulation of miR-125 expression in human SK-HEP1 cells at 10 uM by qRT-PCR analysis; assay type: functional, cell-based
MHCC97-L [13] = experiment: Upregulation of let-7 expression in human MHCC97-L cells at 10 uM by qRT-PCR analysis; assay type: functional, cell-based
HCCLM3 [14] = experiment: Upregulation of miR-125 expression in human HCCLM3 cells at 10 uM by qRT-PCR analysis; assay type: functional, cell-based
[15] = Toxicity in SCID mouse xenografted with human MHCC97-L cells assessed as effect on heart at 10 to 50 mg/kg, ip administered every 2 days for 4 weeks by hematoxyin-eosin staining based analysis; assay type: organism-based; conditions: in vivo, 672 h, dose 10-50 mg/kg
SK-HEP1 [16] = experiment: Upregulation of let-7 expression in human SK-HEP1 cells at 10 uM by qRT-PCR analysis; assay type: functional, cell-based
SK-HEP1 [17] = experiment: Downregulation of mature miR-21 expression in human SK-HEP1 cells at 10 uM incubated for 24 hrs; assay type: functional, cell-based
HepG2 [18] = experiment: Upregulation of pre-miR-122 in human HepG2 cells at 10 uM incubated for 6 hrs by qRT-PCR analysis; assay type: functional, cell-based
HCCLM3 [19] = experiment: Downregulation of miR-18a expression in human HCCLM3 cells at 10 uM by qRT-PCR analysis; assay type: functional, cell-based
HCCLM3 [20] = experiment: Inhibition of cell migration in human HCLLM3 cells at 1 to 25 uM measured after 24 hrs by crystal violet staining based transwell assay; assay type: functional; conditions: dose 1-25 µM
[21] = Toxicity in SCID mouse xenografted with human MHCC97-L cells assessed as effect on liver at 10 to 50 mg/kg, ip administered every 2 days for 4 weeks by hematoxyin-eosin staining based analysis; assay type: organism-based; conditions: in vivo, 672 h, dose 10-50 mg/kg
[22] = Inhibition of TRBP (unknown origin) - recombinant Dicer (unknown origin) protein-protein interaction incubated for 3 hrs by GST pull-down assay; design: species or system Homo sapiens
SK-HEP1 [23] = experiment: Downregulation of vimentin expression in human SK-HEP1 cells at 1 to 25 uM by Western blot analysis; assay type: functional, cell-based; conditions: dose 1-25 µM
HCCLM3 [24] = experiment: Inhibition of cell invasion in human HCLLM3 cells at 1 to 25 uM measured after 24 hrs by crystal violet staining based transwell assay; assay type: functional; conditions: dose 1-25 µM
[25] = Inhibition of microRNA in human HeLa cells transfected with pCI-neo-luciferase-miR-21 plasmid assessed as change in luciferase signal incubated for 24 hrs by luciferase reporter assay; assay type: cell-based
HepG2 [26] = experiment: Upregulation of pri-miR-21 in human HepG2 cells at 10 uM incubated for 6 hrs by qRT-PCR analysis; assay type: functional, cell-based
SK-HEP1 [27] = experiment: Downregulation of N-cadherin expression level in TRBP siRNA transfected human SK-HEP1 cells incubated for 48 hrs by Western blotting analysis; assay type: functional, cell-based
SK-HEP1 [28] = experiment: Inhibition of cell migration in human SK-HEP1 cells assessed as reduction of cell mobility at 1 to 25 uM measured at 24 hrs by well scratch method; assay type: functional, cell-based; conditions: dose 1-25 µM
HepG2 [29] = experiment: Upregulation of pre-miR-221 in human HepG2 cells at 10 uM incubated for 6 hrs by qRT-PCR analysis; assay type: functional, cell-based
HeLa [30] = experiment: Upregulation of pri-miR-21 in human HeLa cells at 10 uM incubated for 6 hrs by qRT-PCR analysis; assay type: functional, cell-based
SK-HEP1 [31] = experiment: Upregulation of PDCD4 protein expression in human SK-HEP1 cells incubated for 24 hrs by Western blotting analysis; assay type: functional, cell-based; conditions: dose 1-50 µM, DDE = dose-dependent effect
HeLa [32] = experiment: Upregulation of pre-miR-30a in human HeLa cells at 10 uM incubated for 6 hrs by qRT-PCR analysis; assay type: functional, cell-based
HeLa [33] = experiment: Upregulation of pre-miR-21 in human HeLa cells at 10 uM incubated for 6 hrs by qRT-PCR analysis; assay type: functional, cell-based
Homo sapiens [34] = species on record: Homo sapiens; experiment: Effect on PACT-Dicer interaction (unknown origin) assessed as increase in binding of PACT to Dicer at 1 to 25 uM by Western blotting analysis; conditions: dose 1-25 µM
HCCLM3 [35] = experiment: Antiproliferative activity against human HCCLM3 cells assessed as inhibition of cell growth incubated for 72 hrs by CellTiter-luminescence assay; assay type: functional, cell-based
SK-HEP1 [36] = experiment: Downregulation of miR-18a expression in human SK-HEP1 cells at 10 uM by qRT-PCR analysis; assay type: functional, cell-based
HepG2 [37] = experiment: Upregulation of pri-miR-122 in human HepG2 cells at 10 uM incubated for 6 hrs by qRT-PCR analysis; assay type: functional, cell-based
[38] = Acute toxicity in KM mouse assessed as effect on kidney at 100 mg/kg, ip administered for 7 consecutive days by hematoxyin-eosin staining based analysis; assay type: organism-based; conditions: in vivo, 168 h, time 7 day
[39] = Toxicity in SCID mouse xenografted with human MHCC97-L cells assessed as effect on kidney at 10 to 50 mg/kg, ip administered every 2 days for 4 weeks by hematoxyin-eosin staining based analysis; assay type: organism-based; conditions: in vivo, 672 h, dose 10-50 mg/kg
HeLa [40] = experiment: Inhibition of microRNA in human HeLa cells transfected with pCI-neo-luciferase-miR-21 plasmid assessed as change in luciferase signal by measuring relative luciferase unit by luciferase reporter assay; assay type: cell-based
SK-HEP1 [41] = experiment: Downregulation of RHOB expression in human SK-HEP1 cells at 1 to 25 uM by Western blotting analysis; assay type: functional, cell-based; conditions: dose 1-25 µM
[42] = Inhibition of microRNA in human HeLa cells transfected with pCI-neo-luciferase-miR-21 plasmid assessed as increase in luciferase activity by luciferase reporter assay; assay type: cell-based

CCOC(=O)c1nc(-c2ccc(OC)cc2)oc1C
Non-Toxic: Activity [5] | Activity [15] | Activity [21] | Activity [38] | Activity [39]
12.3 µM: IC50 [22]
1.38 µM: EC50 [25] | EC50 [42]
active: Activity (SK-HEP1 [2]) | Activity (HepG2 [3]) | Activity (SK-HEP1 [4]) | Activity (HeLa [7]) | Activity (MHCC97-L [8]) | Activity (Homo sapiens [9]) | inhibition (MHCC97-L [10]) | Activity (HCCLM3 [11]) | Activity (SK-HEP1 [12]) | Activity (MHCC97-L [13]) | Activity (HCCLM3 [14]) | Activity (SK-HEP1 [16]) | Activity (SK-HEP1 [17]) | Activity (HepG2 [18]) | Activity (HCCLM3 [19]) | inhibition (HCCLM3 [20]) | Activity (SK-HEP1 [23]) | inhibition (HCCLM3 [24]) | Activity (HepG2 [26]) | Activity (SK-HEP1 [27]) | inhibition (SK-HEP1 [28]) | Activity (HepG2 [29]) | Activity (HeLa [30]) | Activity (SK-HEP1 [31]) Dde | Activity (HeLa [32]) | Activity (HeLa [33]) | Activity (Homo sapiens [34]) | Activity (HCCLM3 [35]) | Activity (SK-HEP1 [36]) | Activity (HepG2 [37]) | Activity (SK-HEP1 [41])
5.68: RLU (HeLa [40])
60%: Activity (HeLa [1]) | Activity (HeLa [6])
